Read-outs that look alike come from different tables or passages of the source.
Assays:
full length (FL) LXRβ = molecular target: T1, full length (FL) LXRβ (Homo sapiens, UniProt P55055, DUP175-175); assay: LXR Gal4 reporter transient transfection assay (FL-M2H Gal4β); type: cell-based; conditions: HEK293 cells
T1 construct: the full length (FL) proteins of LXRα (amino acids 1-447); NP005684; NP009052; expressed in transfected cells; host or cells: HEK293
T1 sequence (P55055 with tags, fused parts or gaps DUP175-175): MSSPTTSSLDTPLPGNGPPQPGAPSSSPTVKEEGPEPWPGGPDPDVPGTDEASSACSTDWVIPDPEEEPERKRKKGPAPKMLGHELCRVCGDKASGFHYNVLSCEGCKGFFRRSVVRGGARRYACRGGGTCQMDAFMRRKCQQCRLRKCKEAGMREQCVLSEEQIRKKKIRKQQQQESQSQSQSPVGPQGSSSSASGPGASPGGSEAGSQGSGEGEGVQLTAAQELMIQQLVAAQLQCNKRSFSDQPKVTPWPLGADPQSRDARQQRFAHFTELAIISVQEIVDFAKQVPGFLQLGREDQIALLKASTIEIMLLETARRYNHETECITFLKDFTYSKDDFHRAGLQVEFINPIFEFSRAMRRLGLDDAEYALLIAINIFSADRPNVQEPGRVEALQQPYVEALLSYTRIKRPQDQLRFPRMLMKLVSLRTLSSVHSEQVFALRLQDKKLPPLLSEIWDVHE
Summary of the method: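 Mammalian two-hybrid in HEK293 cells transiently transfected with NFkB-AD-fused FL or LBD LXR plus GAL4-BD-fused SRC1 or NCoR cofactor domains and GAL4-responsive firefly luciferase reporter, Renilla-normalized. Compound added 4 h post-transfection (≤0.2% DMSO), 16 h incubation, luminescence read.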

[1] = molecular target: T2, LXRβ ligand-binding domain (Homo sapiens, UniProt P55055, DUP175-175); assay: TR-FRETβ activity assay (NCoA3 coactivator peptide recruitment); type: biochemical
T2 construct: amino acids 156-461; NP009052; made in house; host or cells: E. coli
T2 sequence (P55055 with tags, fused parts or gaps DUP175-175 limits assumed): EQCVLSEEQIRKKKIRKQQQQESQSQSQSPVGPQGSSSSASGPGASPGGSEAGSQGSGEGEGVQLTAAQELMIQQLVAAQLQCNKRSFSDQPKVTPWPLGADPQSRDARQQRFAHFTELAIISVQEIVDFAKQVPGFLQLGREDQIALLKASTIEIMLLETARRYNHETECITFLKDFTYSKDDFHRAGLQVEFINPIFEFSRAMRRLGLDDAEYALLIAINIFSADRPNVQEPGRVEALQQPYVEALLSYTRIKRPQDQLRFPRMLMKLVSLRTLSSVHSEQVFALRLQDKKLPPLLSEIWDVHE
Summary of the method: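 GST-tagged human LXRβ LBD (aa 156-461, E. coli) at 76 nM with 400 nM biotinylated NCoA3 peptide in Tris/HCl pH 6.8, 240 mM KCl, BSA, 0.002% Triton-X-100, plus 1 μM 24(S)-25-epoxycholesterol as prestimulating agonist. Compounds at 50 μM down to 0.002 μM, 1 h at 4 °C. Coactivator recruitment by TR-FRET (Tb cryptate/XL665, 615/665 nm), triplicates.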

[2] = full length LXRβ, read-out: FL-M2H Gal4β (EC50 range)
[3] = TR-FRET, 1 μM 24(S)-25-epoxycholesterol prestimulation, read-out: FRETβ (EC50 range)
[4] = 1 μM 24(S)-25-epoxycholesterol as prestimulating agonist
[5] = 1 μM 24(S)-25-epoxycholesterol as prestimulating agonist, read-out: FRETβ potency

## N#Cc1cccc(C#N)c1-c1c(-c2cccc(-c3ccc(C(=O)O)cc3F)c2)n(S(=O)(=O)c2ccc(C(F)F)cc2)c2ccc(F)cc12 [11/51]
Full length (FL) LXRβ; [2]
  EC50: < 0.1 µM
[1]; [3]
  EC50: < 0.1 µM

## N#Cc1sccc1-c1c(-c2cccc(-c3ccc(C(=O)O)cc3Cl)c2)n(S(=O)(=O)c2ccc(C(F)(F)F)nc2)c2ccc(F)cc12 [11/16]
Full length (FL) LXRβ; [2]
  EC50: < 0.1 µM
[1]; [3]
  EC50: 0.1 to 1 µM

## N#Cc1cccc(C#N)c1-c1c(-c2cccc(-c3ccc(C(=O)O)cc3Cl)c2)n(S(=O)(=O)C2CCC(F)(F)CC2)c2ccc(F)cc12 [11/63]
Full length (FL) LXRβ; [2]
  EC50: < 0.1 µM
[1]; [3]
  EC50: 0.1 to 1 µM

## N#Cc1ccccc1-c1c(-c2cccc(-c3ccc(C(=O)O)cc3Cl)c2)n(S(=O)(=O)c2ccc(C(F)F)cc2)c2cnccc12 [11/49]
Full length (FL) LXRβ; [2]
  EC50: < 0.1 µM
[1]; [3]
  EC50: < 0.1 µM

## Cc1ccc(S(=O)(=O)n2c(-c3cccc(N4CC(C(=O)O)C4)c3)c(-c3ccsc3C#N)c3cc(Cl)ccc32)cc1 [3/44]
Full length (FL) LXRβ; [2]
  EC50: < 0.1 µM
[1]; [3]
  EC50: 1 to 10 µM

## CC(=O)NS(=O)(=O)c1ccc(-c2cccc(-c3c(-c4c(C#N)cccc4C#N)c4cc(F)ccc4n3S(=O)(=O)c3ccc(C(F)F)cc3)c2)c(Cl)c1 [8/8]
Full length (FL) LXRβ; [2]
  EC50: < 0.1 µM
[1]; [3]
  EC50: < 0.1 µM

## N#Cc1cccnc1-c1c(-c2cccc(-c3ccc(C(=O)O)cc3Cl)c2)n(S(=O)(=O)c2ccc(C(F)F)cc2)c2ccc(F)cc12 [11/26]
Full length (FL) LXRβ; [2]
  EC50: < 0.1 µM
[1]; [3]
  EC50: < 0.1 µM

## Cc1ccc(S(=O)(=O)n2c(-c3cccc(-c4ccc(C(=O)O)cc4)c3)c(-c3ccsc3C#N)c3cc(F)ccc32)cc1C [23/2]
Full length (FL) LXRβ; [2]
  EC50: < 0.1 µM
[1]; [3]
  EC50: 0.1 to 1 µM

## N#Cc1cccc(C#N)c1-c1c(-c2cccc(-c3c(F)cc(CC(=O)O)cc3F)c2)n(S(=O)(=O)c2ccc(C(F)F)cc2)c2ccc(F)cc12 [3/73]
Full length (FL) LXRβ; [2]
  EC50: < 0.1 µM
[1]; [3]
  EC50: < 0.1 µM

## CN(CCS(=O)(=O)O)C(=O)c1ccc(-c2cccc(-c3c(-c4c(C#N)cccc4C#N)c4cc(F)ccc4n3S(=O)(=O)c3ccc(C(F)F)cc3)c2)c(Cl)c1 [10/2]
Full length (FL) LXRβ; [2]
  EC50: < 0.1 µM
[1]; [3]
  EC50: < 0.1 µM

## N#Cc1nccnc1-c1c(-c2cccc(-c3cc(F)c(C(=O)O)cc3Cl)c2)n(S(=O)(=O)c2ccc(C(F)F)cc2)c2ccc(F)cc12 [11/11]
Full length (FL) LXRβ; [2]
  EC50: < 0.1 µM
[1]; [3]
  EC50: < 0.1 µM

## O=C(O)c1ccc(-c2cccc(-c3c(-c4ccccc4C4COC4)c4cc(F)ccc4n3S(=O)(=O)c3ccc(C(F)F)cc3)c2)c(Cl)c1 [3/59]
Full length (FL) LXRβ; [2]
  EC50: < 0.1 µM
[1]; [3]
  EC50: < 0.1 µM

## Cc1ccc(S(=O)(=O)n2c(-c3cccc(-c4ccc(C(=O)O)cc4Cl)c3)c(-c3ccsc3C#N)c3cc(F)ccc32)cc1 [3/48]
Full length (FL) LXRβ; [2]
  EC50: < 0.1 µM
[1]; [3]
  EC50: 0.1 to 1 µM

## Cc1ccc(S(=O)(=O)n2c(-c3cccc(C45CCC(C(=O)O)(CC4)CC5)c3)c(-c3ccsc3C#N)c3cc(F)ccc32)cc1 [3/64]
Full length (FL) LXRβ; [2]
  EC50: < 0.1 µM
[1]; [3]
  EC50: 0.1 to 1 µM

## N#Cc1cccc(C#N)c1-c1c(-c2cccc(-c3ccc(C(=O)O)cc3Cl)c2)n(S(=O)(=O)c2ccc(C(F)(F)F)nc2)c2ccc(F)cc12 [11/37]
Full length (FL) LXRβ; [2]
  EC50: < 0.1 µM
[1]; [3]
  EC50: < 0.1 µM

## O=C(O)c1ccc(-c2cccc(-c3c(-c4ncccc4C(F)(F)F)c4cc(F)ccc4n3S(=O)(=O)c3ccc(C(F)F)cc3)c2)c(Cl)c1 [11/23]
Full length (FL) LXRβ; [2]
  EC50: < 0.1 µM
[1]; [3]
  EC50: < 0.1 µM

## O=C(O)c1ccc(-c2cccc(-c3c(-c4c(Cl)cccc4Cl)c4cc(F)ccc4n3S(=O)(=O)c3ccc(C(F)F)cc3)c2)c(Cl)c1 [11/13]
Full length (FL) LXRβ; [2]
  EC50: < 0.1 µM
[1]; [3]
  EC50: < 0.1 µM

## Cc1ccc(S(=O)(=O)n2c(-c3cccc(N4CC(C(=O)O)C4)c3)c(-c3ccsc3C#N)c3cc(F)ccc32)cc1 [3/32]
Full length (FL) LXRβ; [2]
  EC50: < 0.1 µM
[1]; [4]
  FRETβ efficacy (value in brackets): −98%
[1]; [5]
  EC50: 0.551 µM
[1]; [3]
  EC50: 0.1 to 1 µM

## COc1c(C(=O)O)ccc(-c2cccc(-c3c(-c4ccccc4C#N)c4cc(F)ccc4n3S(=O)(=O)c3ccc(C(F)F)cc3)c2)c1Cl [11/27]
Full length (FL) LXRβ; [2]
  EC50: < 0.1 µM
[1]; [3]
  EC50: < 0.1 µM

## Cc1ccc(S(=O)(=O)n2c(-c3cccc(N4CC(C(=O)O)C4)c3)c(-c3ccsc3C#N)c3cc(F)c(F)cc32)cc1 [3/42]
Full length (FL) LXRβ; [2]
  EC50: < 0.1 µM
[1]; [3]
  EC50: 1 to 10 µM

## N#Cc1cccc(C#N)c1-c1c(-c2cccc(-c3ccc(C(=O)O)cc3Cl)c2)n(S(=O)(=O)c2ccc(C(F)F)cc2)c2ccc(F)cc12 [11/12]
Full length (FL) LXRβ; [2]
  EC50: < 0.1 µM
[1]; [3]
  EC50: < 0.1 µM

## Cc1ccc(S(=O)(=O)n2c(-c3cccc(-c4ccc(C(=O)O)cc4)c3)c(-c3ccsc3C#N)c3cc(F)ccc32)cc1 [5/3]
Full length (FL) LXRβ; [2]
  EC50: < 0.1 µM
[1]; [3]
  EC50: 0.1 to 1 µM

## N#Cc1cccc(C#N)c1-c1c(-c2cccc(-c3c(F)cc(C(=O)O)cc3F)c2)n(S(=O)(=O)c2ccc(C(F)F)cc2)c2ccc(F)cc12 [11/53]
Full length (FL) LXRβ; [2]
  EC50: < 0.1 µM
[1]; [3]
  EC50: < 0.1 µM

## N#Cc1cccc(C#N)c1-c1c(-c2cccc(-c3cc(F)c(C(=O)O)cc3Cl)c2)n(S(=O)(=O)c2ccc(C(F)F)cc2)c2ccc(F)cc12 [11/65]
Full length (FL) LXRβ; [2]
  EC50: < 0.1 µM
[1]; [3]
  EC50: < 0.1 µM

## Cc1ccc(S(=O)(=O)n2c(-c3cccc(N4CC(C(=O)O)C4)c3)c(-c3ccsc3C#N)c3cc(F)c(Cl)cc32)cc1 [3/43]
Full length (FL) LXRβ; [2]
  EC50: < 0.1 µM
[1]; [3]
  EC50: 1 to 10 µM

## N#Cc1cccc(C#N)c1-c1c(-c2cccc(-c3ccc(C(=O)NCC(=O)O)cc3Cl)c2)n(S(=O)(=O)c2ccc(C(F)F)cc2)c2ccc(F)cc12 [21/3]
Full length (FL) LXRβ; [2]
  EC50: < 0.1 µM
[1]; [3]
  EC50: < 0.1 µM

## N#Cc1ccccc1-c1c(-c2cccc(-c3ccc(C(=O)O)cc3Cl)c2)n(S(=O)(=O)c2ccc(C(F)F)cc2)c2ccc(F)cc12 [11/33]
Full length (FL) LXRβ
  FL-M2H Gal4β efficacy (value in brackets): 130%
Full length (FL) LXRβ; [2]
  EC50: < 0.1 µM
Full length (FL) LXRβ; read-out: FL-M2H Gal4β potency
  EC50: 0.0017 µM
[1]; [4]
  FRETβ efficacy (value in brackets): −99%
[1]; [5]
  EC50: 0.019 µM
[1]; [3]
  EC50: < 0.1 µM

## Cc1ccc(S(=O)(=O)n2c(-c3cccc(N4CC(C(=O)O)C4)c3)c(-c3ccsc3C#N)c3cc(C)ccc32)cc1 [3/46]
Full length (FL) LXRβ; [2]
  EC50: < 0.1 µM
[1]; [3]
  EC50: 0.1 to 1 µM

## N#Cc1cccc(C#N)c1-c1c(-c2cccc(-c3ccc(C(=O)NCCS(=O)(=O)O)cc3Cl)c2)n(S(=O)(=O)c2ccc(C(F)F)cc2)c2ccc(F)cc12 [10/1]
Full length (FL) LXRβ; [2]
  EC50: < 0.1 µM
[1]; [3]
  EC50: < 0.1 µM

— patent US11618747B2, “LXR modulators with bicyclic core moiety” (OrsoBio, Inc., priority 2018, dated 2023)
